ChEMBL document CHEMBL5528080, “Discovery of RORγ Allosteric Fluorescent Probes and Their Application: Fluorescence Polarization, Screening, and Bioimaging” (J Med Chem, 2024)

Assays:
Test in all cases: biochemical
[1] = target: T1, Nuclear receptor ROR-gamma (Homo sapiens, UniProt P51449)
T1 sequence (P51449 whole entry): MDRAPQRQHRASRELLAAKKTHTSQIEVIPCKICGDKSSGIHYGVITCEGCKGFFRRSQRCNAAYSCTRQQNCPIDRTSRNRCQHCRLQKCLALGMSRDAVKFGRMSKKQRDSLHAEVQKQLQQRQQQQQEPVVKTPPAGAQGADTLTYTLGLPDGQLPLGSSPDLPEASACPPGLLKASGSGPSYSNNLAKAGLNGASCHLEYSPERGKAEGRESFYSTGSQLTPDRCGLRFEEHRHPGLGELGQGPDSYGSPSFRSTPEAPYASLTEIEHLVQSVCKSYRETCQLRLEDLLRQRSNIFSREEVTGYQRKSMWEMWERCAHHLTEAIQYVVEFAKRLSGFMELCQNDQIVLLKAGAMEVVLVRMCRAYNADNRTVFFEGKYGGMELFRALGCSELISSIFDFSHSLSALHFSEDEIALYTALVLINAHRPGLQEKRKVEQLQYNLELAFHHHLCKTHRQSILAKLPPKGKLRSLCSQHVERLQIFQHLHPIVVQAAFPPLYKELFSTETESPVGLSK
Description: Allosteric inhibition of N-terminal his6-tagged human recombinant RORgamma LBD (261 to 518 residues) expressed in Sf9 insect cells incubated for 30 mins by fluorescence polarization assay

[2] = target: T1, Nuclear receptor ROR-gamma; remark: listed apart in the source
Description: Allosteric inhibition of N-terminal his6-tagged human recombinant RORgamma LBD (261 to 518 residues) expressed in Sf9 insect cells assessed as inhibition constant incubated for 30 mins by fluorescence polarization assay

[3] = target: T1, Nuclear receptor ROR-gamma; remark: listed apart in the source
Description: Binding affinity to N-terminal his6-tagged human recombinant RORgamma LBD (261 to 518 residues) expressed in Sf9 insect cells assessed as dissociation constant by SPR analysis

[4] = target: T1, Nuclear receptor ROR-gamma; remark: listed apart in the source
Description: Binding affinity to N-terminal his6-tagged human recombinant RORgamma LBD (261 to 518 residues) expressed in Sf9 insect cells assessed as dissociation constant incubated for 30 mins by fluorescence polarization assay

Compound: Cc1cccc(C(=O)c2cn(-c3ccc(C(=O)O)s3)c3ccccc23)c1
- IC50 [1]: 149 µM
- Ki [2]: 79.8 µM

Compound: O=C(O)c1ccc(-n2cc(C(=O)c3ccccc3)c3ccccc32)s1
- IC50 [1]: 19.3 µM
- Ki [2]: 102 µM

Compound: O=C(O)c1ccc(-n2cc(C(=O)c3ccc(Cl)cc3)c3ccccc32)s1
- IC50 [1]: 39.9 µM
- Ki [2]: 21.3 µM

Compound: O=C(O)c1ccc(-n2cc(C(=O)c3c(Cl)cccc3C(F)(F)F)c3ccccc32)s1
- IC50 [1]: 1.7 µM
- Ki [2]: 0.91 µM

Compound: Cc1ccc(C(=O)c2cn(-c3ccc(C(=O)O)s3)c3ccccc23)cc1
- IC50 [1]: 79.9 µM
- Ki [2]: 42.7 µM

Compound: O=C(O)c1ccc(-n2cc(C(=O)c3cccc(Cl)c3)c3ccccc32)s1
- IC50 [1]: 28.5 µM
- Ki [2]: 15.2 µM

Compound: O=C(O)c1ccc(-n2cc(C(=O)c3ccccc3Cl)c3ccccc32)s1
- IC50 [1]: 13.5 µM
- Ki [2]: 7.2 µM

Compound: O=C(O)c1ccc(-n2cc(C(=O)c3c(Cl)cccc3Cl)c3ccccc32)s1
- IC50 [1]: 0.95 µM
- Ki [2]: 0.51 µM

Compound: O=C(O)c1ccc(-c2nn(C(=O)c3ccccc3)c3ccccc23)cc1
- Ki [2]: 1.11 µM

Compound: O=C(O)c1ccc(-n2cc(C(=O)c3c(Cl)cccc3Cl)c3ccccc32)cc1
- IC50 [1]: 0.009 µM
- Ki [2]: 0.005 µM

Compound: Cc1cc(-n2cc(C(=O)c3c(Cl)cccc3Cl)c3ccccc32)sc1C(=O)O
- IC50 [1]: 3.1 µM
- Ki [2]: 1.7 µM

Compound: Cc1ccccc1C(=O)c1cn(-c2ccc(C(=O)O)s2)c2ccccc12
- IC50 [1]: 33 µM
- Ki [2]: 17.6 µM

Compound: Cc1csc(-n2cc(C(=O)c3c(Cl)cccc3Cl)c3ccccc32)c1
- IC50 [1]: > 1000 µM

Compound: O=C(O)c1ccc(-c2nn(C(=O)c3c(Cl)cccc3C(F)(F)F)c3cc(C(=O)NCCOCCOCCNC(=S)Nc4ccc5c(c4)C(=O)OC54c5ccc(O)cc5Oc5cc(O)ccc54)ccc23)cc1
- Kd [3]: 0.28 µM
- Kd [4]: 0.0517 µM
